Laboratory results from patent US4590178A (Ajinomoto Company, Incorporated, priority 1982, dated 1986).

System: spontaneously hypertensive rats
Assay: Antihypertensive activity: systolic blood pressure measured indirectly on conscious SHR after peroral dosing
Format: in vivo, rat
Conditions: for Systolic Blood Pressure, Pretreatment: SHR (male, 13 months, 2 per sample), before 35 mg/kg peroral single dose; for Systolic Blood Pressure, 4 hrs after administration / Δ Blood Pressure: SHR; for Systolic Blood Pressure, 4 hrs after administration: 4 hours after 35 mg/kg peroral single dose; for Δ Blood Pressure: 4 hours after 35 mg/kg peroral single dose versus pretreatment
Protocol: The antihypertensive activity of part of the amino acid derivatives prepared above, was determined.
As subject animals 2 SHR were used which had been trained enough and been confirmed to be hypertensive spontaneously hypertensive rats (male, 13 months of age, the body weight of 400 to 440 g) per sample.
As an instrument for measuring the blood pressure a Programmed Electro-Sphygmomanometer PE-300 (Narco Co., U.S.A.) was used, and the blood pressure was indirectly measured on conscious rats.
An aqueous solution or suspension of a sample (35 mg/kg) was once force-fed into the stomach by means of a peroral probe.
An antihypertensive activity of part of the amino acid derivatives prepared above was determined.
As subject animals there were used 2 SHR which had been trained enough and been confirmed to be hypertensive spontaneously hypertensive rats (male, 13 months of age, the body weight of 400~440 g) per sample.
As an instrument for measuring the blood pressure there was used Programmed Electro-Sphygmomanometer PE-300 (Narco Co., U.S.A.), and the blood pressure was indirectly measured on conscious rats.
An antihypertensive activity of the product prepared above was determined.

Compound | Systolic Blood Pressure, Pretreatment | Systolic Blood Pressure, 4 hrs after administration | Δ Blood Pressure
C[C@H](NP(=O)(O)CCc1ccccc1)C(=O)N(CC(=O)N1CCC[C@H]1C(=O)[O-])C1Cc2ccccc2C1.C[C@H](NP(=O)(O)CCc1ccccc1)C(=O)N(CC(=O)N1CCC[C@H]1C(=O)[O-])C1Cc2ccccc2C1.[Na+].[Na+] [Example 29, N-Phenethylphosphonyl-L-alanyl-N-(2-indanyl)glycyl-L-proline 2 sodium salt] | 203 mm Hg | 172 mm Hg | -31 mm Hg
CSCC[C@H](NP(=O)(CCc1ccccc1)OCc1ccccc1)C(=O)N1CCC[C@H]1C(=O)N1CCC[C@H]1C(=O)[O-].CSCC[C@H](NP(=O)(CCc1ccccc1)OCc1ccccc1)C(=O)N1CCC[C@H]1C(=O)N1CCC[C@H]1C(=O)[O-].[Ca+2] (stereo partly drawn) [Example 55, N-(O-Benzyl-P-phenethylphosphonyl)-L-methionyl-L-prolyl-L-proline calcium salt] | 210 mm Hg | 180 mm Hg | -30 mm Hg
Dibenzylphosphoryl-L-alanyl-L-prolyl-D-proline L-arginine salt [Example 15] | 182 mm Hg | 167 mm Hg | -15 mm Hg
Diethylphosphoryl-L-lysyl-L-prolyl-L-proline L-arginine salt [Example 23] | 190 mm Hg | 165 mm Hg | -25 mm Hg
C[C@H](NP(=O)(OCc1ccccc1)OCc1ccccc1)C(=O)N1CCC[C@H]1C(=O)N[C@@H](CCCNC(=N)N)C(=O)O [Example 13] | 181 mm Hg | 162 mm Hg | -19 mm Hg
COP(=O)(CCc1ccccc1)N[C@@H](CCSC)C(=O)N1CCC[C@H]1C(=O)N1CCC[C@H]1C(=O)O.NC(N)=NCCC[C@H](N)C(=O)O (stereo partly drawn) [Example 41, N--(O--methyl-P--phenethylphosphonyl)-L-methionyl-L-prolyl-L-proline L-arginine salt] | 203 mm Hg | 172 mm Hg | -31 mm Hg
C[C@H](NP(=O)(CCc1ccccc1)OCc1ccccc1)C(=O)N1CCC[C@H]1C(=O)N1CCC[C@H]1C(=O)OCc1ccccc1 (stereo partly drawn) [Example 26, N-(O-benzyl-P-phenethylphosphonyl)-L-alanyl-L-prolyl-L-proline benzylester] | 182 mm Hg | 160 mm Hg | -22 mm Hg
Dibenzylphosphoryl-glycyl-L-prolyl-L-proline L-arginine salt [Example 19] | 196 mm Hg | 181 mm Hg | -15 mm Hg
NCCCC[C@H](NP(=O)(O)CCc1ccccc1)C(=O)N1CCC[C@H]1C(=O)N1CCC[C@H]1C(=O)[O-].NCCCC[C@H](NP(=O)(O)CCc1ccccc1)C(=O)N1CCC[C@H]1C(=O)N1CCC[C@H]1C(=O)[O-].[Na+].[Na+] [Example 36, N^α -Phenethylphosphonyl-L-lysyl-L-prolyl-L-proline 2 sodium salt] | 200 mm Hg | 177 mm Hg | -23 mm Hg
C[C@H](NP(=O)(OCc1ccccc1)OCc1ccccc1)C(=O)N1CCC[C@H]1C(=O)NCC(=O)O.N=C(N)NCCC[C@H](N)C(=O)O [Example 6, Dibenzylphosphory-L-alanyl-L-prolyl-glycine L-arginine salt] | 212 mm Hg | 190 mm Hg | -22 mm Hg
C[C@H](NP(=O)(CCc1ccccc1)OCc1ccccc1)C(=O)N1CCC[C@H]1C(=O)N1CCC[C@H]1C(=O)[O-].[Na+] (stereo partly drawn) [Example 42, N--(O--benzyl-P--phenethylphosphonyl)-L-alanyl-L-prolyl-L-proline sodium salt] | 194 mm Hg | 180 mm Hg | -14 mm Hg
Phosphoryl-L-alanyl-L-prolyl-L-proline L-arginine salt [Example 8] | 196 mm Hg | 177 mm Hg | -19 mm Hg
O=C(O)[C@@H]1CCCN1C(=O)[C@@H]1CCCN1C(=O)[C@H](Cc1ccccc1)NP(=O)(Cc1ccccc1)Cc1ccccc1 [Example 20, Dibenzylphosphoryl-L-phenylalanyl-L-Prolyl-L-proline] | 184 mm Hg | 169 mm Hg | -15 mm Hg
C[C@H](NP(=O)(CCc1ccccc1)OCc1ccccc1)C(=O)N1CCC[C@H]1C(=O)N1CCC[C@H]1C(=O)O.NC(N)=NCCC[C@H](N)C(=O)O (stereo partly drawn) [Example 27, N-(O-benzyl-P-phenethylphosphonyl)-L-alanyl-L-prolyl-L-proline L-arginine salt] | 180 mm Hg | 152 mm Hg | -28 mm Hg
C[C@H](NP(=O)(OCc1ccccc1)OCc1ccccc1)C(=O)N1CCC[C@H]1C(=O)O.NC(N)=NCCC[C@H](N)C(=O)O [*, Dibenzyl phosphorylL-alanyl-L-proline Larginine salt, reference compound] | 198 mm Hg | 193 mm Hg | -5 mm Hg
Dibenzylphosphoryl-L-alanyl-L-prolyl-L-proline dicyclohexylamine salt [Example 74] | 195 mm Hg | 165 mm Hg | -30 mm Hg
C[C@H](NP(=O)(OCc1ccccc1)OCc1ccccc1)C(=O)N1CCC[C@H]1C(=O)N1C[C@H](O)C[C@H]1C(=O)O.N=C(N)NCCC[C@H](N)C(=O)O (relative stereo) [Example 16, Dibenzylphosphoryl-L-alanyl-L-prolyl-trans-L-hydroxyproline L-arginine salt] | 181 mm Hg | 162 mm Hg | -19 mm Hg
CCOP(=O)(CCc1ccccc1)N[C@@H](CCCCN)C(=O)N1CCC[C@H]1C(=O)N1CCC[C@H]1C(=O)O.NC(N)=NCCC[C@H](N)C(=O)O (stereo partly drawn) [Example 37, N^α -(O-Ethyl-P-phenethylphosphonyl)-L-lysyl-L-prolyl-L-proline L-arginine salt] | 201 mm Hg | 172 mm Hg | -29 mm Hg
CCOP(=O)(CCc1ccccc1)N[C@@H](C)C(=O)N1CCC[C@H]1C(=O)N1CCC[C@H]1C(=O)[O-].[Na+] (stereo partly drawn) [Example 43, N--(O--ethyl-P--phenethylphosphonyl)-L-alanyl-L-prolyl-L-proline sodium salt] | 195 mm Hg | 171 mm Hg | -24 mm Hg
Dibenzylphosphoryl-L-alanyl-L-prolyl-L-proline L-arginine salt [Example 1] | 205 mm Hg | 170 mm Hg | -35 mm Hg
Dibenzylphosphoryl-L-alanyl-L-prolyl-L-proline calcium salt [Example 53] | 220 mm Hg | 188 mm Hg | -32 mm Hg
C[C@H](NP(=O)(O)OCc1ccccc1)C(=O)N1CCC[C@H]1C(=O)N1CCC[C@H]1C(=O)O.C[C@H](NP(=O)(O)OCc1ccccc1)C(=O)N1CCC[C@H]1C(=O)N1CCC[C@H]1C(=O)O.N.N [Example 57, Monobenzylphosphoryl-L-alanyl-L-propyl-L-proline diammonium salt] | 195 mm Hg | 167 mm Hg | -28 mm Hg
Dibenzylphosphoryl-L-alanyl-L-prolyl-L-serine L-arginine salt [Example 2] | 202 mm Hg | 180 mm Hg | -22 mm Hg
